Data published in PubChem BioAssay AID248 (DTP/NCI, 2004).
Values joined by “and” are separate entries in the source; they are usually repeats but may differ in a detail not shown here. Equal values may be shown once. Toxic doses and inconclusive results are not listed. Rule as the data show it: active = T/C of 150% or more; inactive = T/C below 125%.

Test system: L1210 leukemia ip in BDF1 mice, survival T/C
Experiment: NCI In Vivo Anticancer Drug Screen. Data for tumor model L1210 Leukemia (intraperitoneal) in B6D2F1 (BDF1) mice
Details: endpoint: mean survival time, higher = longer survival
Summary of the method: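 Transplantable tumor model; survival measured in treated vs vehicle control mice. Value = treated/control.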

[1] = dose: 100.0 mg/kg/injection, schedule: Q01DX001 (ip), vehicle: saline with Tween-80
[2] = dose: 100.0 mg/kg/injection, schedule: Q04DX003 (ip), vehicle: saline with Tween-80
[3] = dose: 100.0 mg/kg/injection, schedule: Q01DX009 (ip), vehicle: Klucel (hydroxypropylcellulose) (HPC)
[4] = dose: 200.0 mg/kg/injection, schedule: Q01DX009 (ip), vehicle: Klucel (hydroxypropylcellulose) (HPC)
[5] = dose: 400.0 mg/kg/injection, schedule: Q01DX009 (ip), vehicle: Klucel (hydroxypropylcellulose) (HPC)
[6] = dose: 100.0 mg/kg/injection, schedule: Q01DX001 (ip), vehicle: Klucel (hydroxypropylcellulose) (HPC)
[7] = dose: 200.0 mg/kg/injection, schedule: Q01DX001 (ip), vehicle: Klucel (hydroxypropylcellulose) (HPC)

Measured: T/C

CSc1ccc(NC(=O)Nc2ccc(C(=O)NCC(=O)O)cc2)cc1
inactive: dose: 25.0 mg/kg/injection, schedule: Q01DX009 (ip), vehicle: saline with Tween-80 102 % of control and 92 % of control | dose: 25.0 mg/kg/injection, schedule: Q04DX003 (ip), vehicle: saline with Tween-80 96 % of control | dose: 50.0 mg/kg/injection, schedule: Q04DX003 (ip), vehicle: saline with Tween-80 105 % of control | [1] 97 % of control | dose: 100.0 mg/kg/injection, schedule: Q04DX002 (ip), vehicle: saline with Tween-80 96 % of control and 91 % of control | [2] 110 % of control | dose: 200.0 mg/kg/injection, schedule: Q04DX002 (ip), vehicle: saline with Tween-80 94 % of control and 99 % of control

COC(=O)C(NC(=O)CCl)C(=O)OC
inactive: dose: 100.0 mg/kg/injection, schedule: Q04DX003 (ip), vehicle: other 96 % of control | dose: 200.0 mg/kg/injection, schedule: Q04DX003 (ip), vehicle: other 93 % of control | dose: 400.0 mg/kg/injection, schedule: Q04DX003 (ip), vehicle: other 94 % of control

CC(=O)Nc1c(Cl)cc2c(c1Cl)Cc1cc(N=Cc3ccc4c(c3)OCO4)ccc1-2
inactive: dose: 100.0 mg/kg/injection, schedule: Q01DX001 (ip), vehicle: other 91 % of control | dose: 200.0 mg/kg/injection, schedule: Q01DX001 (ip), vehicle: other 101 % of control | dose: 400.0 mg/kg/injection, schedule: Q01DX001 (ip), vehicle: other 100 % of control

CC(Cl)CN(Cc1cc(O)c(CN(CC(C)Cl)CC(C)Cl)cc1O)CC(C)Cl (stereo unspecified)
inactive: dose: 50.0 mg/kg/injection, schedule: Q01DX001 (ip), vehicle: carboxymethylcellulose (CMC) 105 % of control | dose: 100.0 mg/kg/injection, schedule: Q01DX001 (ip), vehicle: carboxymethylcellulose (CMC) 94 % of control | dose: 200.0 mg/kg/injection, schedule: Q01DX001 (ip), vehicle: carboxymethylcellulose (CMC) 95 % of control | dose: 400.0 mg/kg/injection, schedule: Q01DX001 (ip), vehicle: carboxymethylcellulose (CMC) 90 % of control

O=C(/N=N/C(=O)Oc1ccccc1)Oc1ccccc1
inactive: dose: 100.0 mg/kg/injection, schedule: Q01DX001 (ip), vehicle: saline 98 % of control | dose: 200.0 mg/kg/injection, schedule: Q01DX001 (ip), vehicle: saline 101 % of control | dose: 400.0 mg/kg/injection, schedule: Q01DX001 (ip), vehicle: saline 98 % of control

C/C(CC(=O)O)=C(\C)C(=O)O
inactive: dose: 100.0 mg/kg/injection, schedule: Q01DX009 (ip), vehicle: water 95 % of control | dose: 100.0 mg/kg/injection, schedule: Q04DX003 (ip), vehicle: water 96 % of control | dose: 200.0 mg/kg/injection, schedule: Q01DX009 (ip), vehicle: water 91 % of control | dose: 200.0 mg/kg/injection, schedule: Q04DX003 (ip), vehicle: water 102 % of control | dose: 400.0 mg/kg/injection, schedule: Q04DX003 (ip), vehicle: water 104 % of control

CCNCCCCCCNCC
inactive: dose: 12.5 mg/kg/injection, schedule: Q01DX009 (ip), vehicle: saline 97 % of control | dose: 25.0 mg/kg/injection, schedule: Q01DX009 (ip), vehicle: saline 108 % of control | dose: 25.0 mg/kg/injection, schedule: Q04DX003 (ip), vehicle: saline 98 % of control | dose: 50.0 mg/kg/injection, schedule: Q01DX009 (ip), vehicle: saline 93 % of control | dose: 50.0 mg/kg/injection, schedule: Q04DX003 (ip), vehicle: saline 107 % of control | dose: 100.0 mg/kg/injection, schedule: Q04DX003 (ip), vehicle: saline 87 % of control

NSc1nc2ccccc2s1
inactive: dose: 100.0 mg/kg/injection, schedule: Q01DX009 (ip), vehicle: saline with Tween-80 95 % of control | dose: 100.0 mg/kg/injection, schedule: Q04DX003 (ip), vehicle: saline sonified 105 % of control | dose: 200.0 mg/kg/injection, schedule: Q01DX009 (ip), vehicle: saline with Tween-80 93 % of control | dose: 200.0 mg/kg/injection, schedule: Q04DX003 (ip), vehicle: saline sonified 96 % of control | dose: 400.0 mg/kg/injection, schedule: Q04DX003 (ip), vehicle: saline sonified 107 % of control

CSCCC(NC(=O)COc1ccc(Cl)cc1Cl)C(=O)O (stereo unspecified)
inactive: [3] 100 % of control | [4] 101 % of control | [5] 108 % of control

N#CCCC[P+](c1ccccc1)(c1ccccc1)c1ccccc1
inactive: dose: 75.0 mg/kg/injection, schedule: Q01DX001 (ip), vehicle: other 97 % of control | dose: 100.0 mg/kg/injection, schedule: Q04DX002 (ip), vehicle: Klucel (hydroxypropylcellulose) (HPC) 98 % of control

CCCCC(CC)C(O)C(C)C(C)O (stereo unspecified)
inactive: [3] 97 % of control | dose: 100.0 mg/kg/injection, schedule: Q04DX003 (ip), vehicle: Klucel (hydroxypropylcellulose) (HPC) 101 % of control | [4] 102 % of control | dose: 200.0 mg/kg/injection, schedule: Q04DX003 (ip), vehicle: Klucel (hydroxypropylcellulose) (HPC) 98 % of control | [5] 100 % of control | dose: 400.0 mg/kg/injection, schedule: Q04DX003 (ip), vehicle: Klucel (hydroxypropylcellulose) (HPC) 95 % of control

Cc1ccc(Cl)cc1N=Cc1cccc([N+](=O)[O-])c1
inactive: dose: 75.0 mg/kg/injection, schedule: Q04DX003 (ip), vehicle: Klucel (hydroxypropylcellulose) (HPC) 96 % of control | [6] 100 % of control | dose: 150.0 mg/kg/injection, schedule: Q04DX003 (ip), vehicle: Klucel (hydroxypropylcellulose) (HPC) 93 % of control | [7] 97 % of control | dose: 300.0 mg/kg/injection, schedule: Q04DX003 (ip), vehicle: Klucel (hydroxypropylcellulose) (HPC) 93 % of control | dose: 400.0 mg/kg/injection, schedule: Q01DX001 (ip), vehicle: Klucel (hydroxypropylcellulose) (HPC) 101 % of control

CCC(=O)OCCOc1ccc(C(C)(C)C)cc1
inactive: dose: 50.0 mg/kg/injection, schedule: Q04DX002 (ip), vehicle: saline 98 % of control | dose: 100.0 mg/kg/injection, schedule: Q01DX009 (ip), vehicle: saline 98 % of control | dose: 100.0 mg/kg/injection, schedule: Q04DX002 (ip), vehicle: saline 94 % of control | dose: 200.0 mg/kg/injection, schedule: Q01DX009 (ip), vehicle: saline 103 % of control | dose: 200.0 mg/kg/injection, schedule: Q04DX002 (ip), vehicle: saline 91 % of control

CCOC(=O)CCC(NC(=O)c1cnc(N)s1)C(=O)OCC (stereo unspecified)
inactive: dose: 44.0 mg/kg/injection, schedule: Q01DX001 (ip), vehicle: saline with Tween-80 97 % of control | dose: 66.0 mg/kg/injection, schedule: Q01DX001 (ip), vehicle: saline with Tween-80 97 % of control | [1] 97 % of control | dose: 150.0 mg/kg/injection, schedule: Q01DX001 (ip), vehicle: saline with Tween-80 101 % of control | dose: 200.0 mg/kg/injection, schedule: Q01DX001 (ip), vehicle: saline with Tween-80 93 % of control | dose: 400.0 mg/kg/injection, schedule: Q01DX001 (ip), vehicle: saline with Tween-80 102 % of control

Clc1ccc(CSc2ncnc3nc[nH]c23)cc1Cl
inactive: [2] 93 % of control | dose: 200.0 mg/kg/injection, schedule: Q04DX003 (ip), vehicle: saline with Tween-80 94 % of control | dose: 400.0 mg/kg/injection, schedule: Q04DX003 (ip), vehicle: saline with Tween-80 104 % of control

Cc1ccc(COP(=O)(c2ccccc2)c2ccccc2)cc1
inactive: dose: 66.0 mg/kg/injection, schedule: Q01DX001 (ip), vehicle: Klucel (hydroxypropylcellulose) (HPC) 98 % of control | [6] 93 % of control | dose: 150.0 mg/kg/injection, schedule: Q01DX001 (ip), vehicle: Klucel (hydroxypropylcellulose) (HPC) 97 % of control | [7] 91 % of control
